From patent US20220143222A1, “SUBCUTANEOUS AND INTRAMUSCULAR ADMINISTRATION OF PYRAZINE COMPOUNDS” (MediBeacon Inc., priority 2020, published 2022)

Assay: Storage of concentrated MB-102 salt solution at 4° C. (precipitation)
Type: physicochemical
Conditions: 64.2 wt % solution in water, 4° C. for 7 days
Protocol: MB-102 (0.300 g, 0.81 mmol), was placed in a vial (4.0 mL). Water was added (0.8 mL, D.I.) and the mixture sonicated for a brief period of time. To the mixture was added aqueous 6.25 N NaOH (2 equivalents, 1.62 mmol, 0.24 mL, added in portions; 0.020 mL×12 to effect solution) with stirring and brief periods of sonication. […] The final concentration was 300 mg (2R,2′R)-2,2′-((3,6-diaminopyrazine-2,5-dicarbonyl)bis(azanediyl))bis(3-hydroxypropanoic acid), MB-102 per mL water (w/v).
MB-102 (0.30 g, 0.81 mmol) was weighed into a 5 mL v-vial equipped with a Teflon-covered magnetic spin vane. Choline hydroxide in water (Aldrich, 0.43 g of 46 wt %, 1.62 mmol) was added portion-wise with stirring until a solution was obtained. The total weight of the solution was 0.73 g or 64.2 wt % MB-102 di-choline salt (MW: 578.6).

C[N+](C)(C)CCO.C[N+](C)(C)CCO.Nc1nc(C(=O)NC(CO)C(=O)[O-])c(N)nc1C(=O)NC(CO)C(=O)[O-] (stereo not shown) [MB-102 di-choline salt]
precipitation on storage: no precipitation
